According to PubChem BioAssay AID248 (DTP/NCI, 2004):
Values joined by “and” are separate entries in the source; they are usually repeats but may differ in a detail not shown here. Equal values may be shown once. Toxic doses and inconclusive results are not listed.

System: L1210 leukemia ip in BDF1 mice, survival T/C
Test: NCI In Vivo Anticancer Drug Screen. Data for tumor model L1210 Leukemia (intraperitoneal) in B6D2F1 (BDF1) mice
Conditions: endpoint: mean survival time, higher = longer survival
Procedure, shortened: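 Each compound was tested against a transplantable tumor grown in mice. The endpoint was survival, with treated animals benchmarked against vehicle controls as a simple ratio.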

[1] = dose: 25.0 mg/kg/injection, schedule: Q01DX001 (ip), vehicle: saline
[2] = dose: 50.0 mg/kg/injection, schedule: Q01DX001 (ip), vehicle: saline
[3] = dose: 100.0 mg/kg/injection, schedule: Q01DX001 (ip), vehicle: saline
[4] = dose: 200.0 mg/kg/injection, schedule: Q01DX001 (ip), vehicle: saline
[5] = dose: 400.0 mg/kg/injection, schedule: Q01DX001 (ip), vehicle: saline

CCCCOP(=O)(N1CC1C)N1CC1C (centres undefined)
T/C (dose: 6.25 mg/kg/injection, schedule: Q04DX003 (ip), vehicle: acetone): 109 % of control
T/C (dose: 12.5 mg/kg/injection, schedule: Q04DX003 (ip), vehicle: acetone): 115 % of control
T/C [1]: 123 % of control
T/C (dose: 25.0 mg/kg/injection, schedule: Q04DX003 (ip), vehicle: acetone): 153 % of control and 168 % of control
T/C (dose: 37.5 mg/kg/injection, schedule: Q04DX003 (ip), vehicle: acetone): 163 % of control
T/C [2]: 164 % of control
T/C (dose: 66.0 mg/kg/injection, schedule: Q01DX001 (ip), vehicle: acetone): 158 % of control
T/C (dose: 75.0 mg/kg/injection, schedule: Q04DX003 (ip), vehicle: acetone): 91 % of control
T/C (dose: 100.0 mg/kg/injection, schedule: Q01DX001 (ip), vehicle: acetone): 169 % of control
T/C [3]: 159 % of control and 192 % of control
T/C (dose: 150.0 mg/kg/injection, schedule: Q01DX001 (ip), vehicle: acetone): 189 % of control
T/C (dose: 150.0 mg/kg/injection, schedule: Q01DX001 (ip), vehicle: saline): 168 % of control

Cc1cc(OCC#CCN(C)c2ccccc2)ccc1Cl
T/C (dose: 100.0 mg/kg/injection, schedule: Q04DX002 (ip), vehicle: Klucel (hydroxypropylcellulose) (HPC)): 89 % of control
T/C (dose: 200.0 mg/kg/injection, schedule: Q04DX002 (ip), vehicle: Klucel (hydroxypropylcellulose) (HPC)): 99 % of control
T/C (dose: 400.0 mg/kg/injection, schedule: Q04DX002 (ip), vehicle: Klucel (hydroxypropylcellulose) (HPC)): 96 % of control

CC1C(C)(C)C12C=CC=C2 (centres undefined)
T/C [3]: 102 % of control
T/C [4]: 96 % of control
T/C [5]: 96 % of control

O=C(c1ccc([N+](=O)[O-])cc1)c1ccn[nH]1
T/C (dose: 100.0 mg/kg/injection, schedule: Q01DX001 (ip), vehicle: Klucel (hydroxypropylcellulose) (HPC)): 103 % of control
T/C (dose: 200.0 mg/kg/injection, schedule: Q01DX001 (ip), vehicle: Klucel (hydroxypropylcellulose) (HPC)): 99 % of control
T/C (dose: 400.0 mg/kg/injection, schedule: Q01DX001 (ip), vehicle: Klucel (hydroxypropylcellulose) (HPC)): 94 % of control

CC(O)CSc1ccccc1 (centres undefined)
T/C (dose: 100.0 mg/kg/injection, schedule: Q01DX009 (ip), vehicle: saline with Tween-80): 95 % of control
T/C (dose: 200.0 mg/kg/injection, schedule: Q01DX009 (ip), vehicle: saline with Tween-80): 88 % of control

C[n+]1c(-c2cc(Cl)cc(Cl)c2)c2cc([N+](=O)[O-])ccc2c2ccccc21
T/C (dose: 50.0 mg/kg/injection, schedule: Q01DX009 (ip), vehicle: water): 109 % of control
T/C (dose: 100.0 mg/kg/injection, schedule: Q01DX009 (ip), vehicle: water): 96 % of control
T/C (dose: 100.0 mg/kg/injection, schedule: Q04DX003 (ip), vehicle: water): 92 % of control
T/C (dose: 200.0 mg/kg/injection, schedule: Q01DX009 (ip), vehicle: water): 98 % of control
T/C (dose: 200.0 mg/kg/injection, schedule: Q04DX003 (ip), vehicle: water): 96 % of control
T/C (dose: 400.0 mg/kg/injection, schedule: Q04DX003 (ip), vehicle: water): 93 % of control

C1CN(P2(N3CC3)=NP(N3CC3)(N3CC3)=NP(N3CC3)(N3CC3)=N2)CCO1 (centres undefined)
T/C (dose: 6.25 mg/kg/injection, schedule: Q01DX009 (ip), vehicle: saline): 116 % of control and 119 % of control
T/C (dose: 12.5 mg/kg/injection, schedule: Q01DX009 (ip), vehicle: saline): 120 % of control
T/C [1]: 114 % of control and 119 % of control
T/C (dose: 25.0 mg/kg/injection, schedule: Q01DX009 (ip), vehicle: saline): 156 % of control and 164 % of control
T/C (dose: 50.0 mg/kg/injection, schedule: Q01DX009 (ip), vehicle: saline): 99 % of control and 104 % of control and 87 % of control
T/C [3]: 181 % of control and 185 % of control
T/C [4]: 89 % of control

Nc1ccc(/C=C/c2ccc(N)cc2S(=O)(=O)O)c(S(=O)(=O)O)c1
T/C [2]: 97 % of control
T/C [3]: 94 % of control
T/C [4]: 94 % of control
T/C [5]: 97 % of control

S=C([S-])N1CCCCC1.S=C([S-])N1CCCCC1.[Zn]
T/C (dose: 18.8 mg/kg/injection, schedule: Q04DX003 (ip), vehicle: saline): 92 % of control
T/C (dose: 37.5 mg/kg/injection, schedule: Q04DX003 (ip), vehicle: saline): 92 % of control
T/C (dose: 75.0 mg/kg/injection, schedule: Q01DX001 (ip), vehicle: saline): 88 % of control
T/C (dose: 75.0 mg/kg/injection, schedule: Q04DX003 (ip), vehicle: saline): 96 % of control
